Measured values published in patent US20070293580A1, “Methods for Buccal, Lingual or Sublingual Dosing Regimens of Epinephrine for the Treatment of Allergic Emergencies” (priority 2006, published 2007).

Key:
[1] = system: symptoms of anaphylaxis; conditions: 30 mg, then 45 mg at approximately 5 minute intervals without amelioration, within about five minutes after the third dose
Procedure: A patient experiencing an allergic emergency initiates treatment at the onset of shortness of breath by self administering 30 mg of epinephrine free base in a lingual dosage form. After approximately 5 minutes pass without amelioration of the symptoms of anaphylaxis, the patient self administers a second lingual dosage form comprising 30 mg of epinephrine free base. After another approximately 5 minutes pass without amelioration of the symptoms of anaphylaxis, the patient self administers a third lingual dosage form comprising 45 mg of epinephrine free base.

[2] = system: symptoms of anaphylaxis; conditions: 40 mg
Procedure: (§1) A patient experiencing an allergic emergency initiates treatment at the onset of shortness of breath by self administering 40 mg of epinephrine free base in a buccal dosage form.
as §1

CNC[C@H](O)c1ccc(O)c(O)c1 [epinephrine free base, epinephrine]
symptoms of anaphylaxis are relieved: patient's symptoms of anaphylaxis after the third lingual dose [1] | patient's symptoms of anaphylaxis after the third buccal dose ([2]; then 60 mg at approximately 5 minute intervals without amelioration, within about five minutes after the third dose) | patient's symptoms of anaphylaxis after the second buccal dose ([2]; then second 40 mg after approximately 5 minutes without amelioration, within about five minutes after the second dose)
